Several values for one entry are separate records, joined by “and”; a condition that tells them apart may be missing. Identical values can stand only once. Like-named read-outs stand apart in the source and are kept apart here. Marks after values point to notes of the source that are not given here.
Tests used:
[1] = test system: G. lamblia trophozoites (luciferase expressing, WBC6); test: microbe, parasite or virus in culture; format: cell-based, Giardia lamblia; conditions: for EC50: read-out: G. lamblia EC50; for inhibition at 16 µM: read-out: Giardia (16 uM) Mean % inhibition; for Giardia (16 uM) Mean % inhibition: initial Pathogen Box screen, single concentration 16 µM, inhibition compared to DMSO wells
Summary of the method: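 Incubation ran 24 h at 37 °C under anaerobic conditions, with compound added in equal volume to trophozoites (WBC6, luciferase-expressing, 250,000 cells/mL). Bioluminescence was the read-out, cross-checked by MOXI Z counts on a duplicate plate; metronidazole served as control (1:2 dilutions from 40 μM).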

[2] = test system: C. parvum (UGA1 Nluc expressing strain in HCT-8 cells); test: microbe, parasite or virus in culture; format: cell-based, Cryptosporidium parvum; conditions: for Crypto (10 uM) Mean % inhibition: initial Pathogen Box screen, single concentration 10 µM, inhibition compared to DMSO wells; for C. parvum cell growth inhibition in the initial screen: 10 μM
Summary of the method: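 Parasite growth quantified by NanoLuc luminescence from lysed infected HCT-8 cells, with EC50 fitted from dose curves. Compounds, single-dose 10 μM or serially diluted, were added to confluent 48 h monolayers before infection with bleached UGA1 Nluc oocysts.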

[3] = Cytotoxicity against HepG2 cells, AlamarBlue viability assay, 48 hours; format: cell-based, human; conditions: human, HepG2 cells, read-out: HepG2 CC50 (this study)
Source text: (§1) Mammalian cell cytotoxicity assay data performed on HepG2 (human hepatocellular carcinoma) cells and described as CC20 or CC50 values are provided in supporting documentation that accompanied the Pathogen Box for approximately three quarters of the 400 compounds. However, no details of the assay conditions or parameters were provided. In this study, selected compounds were further tested for cytotoxicity against HepG2 cells as previously described. Briefly, cells were exposed to two-fold serial dilutions of compounds for 48 hours and cytotoxicity was assessed using the AlamarBlue® viability assay (Thermo Fisher Scientific, Waltham, MA). Each dilution was assayed in quadruplicate and concentrations causing 50% growth inhibition (CC50) were calculated by non-linear regression using GraphPad Prism 7 software (GraphPad Software, San Diego, CA).

HepG2 cells [4] = conditions: cited from earlier work; for HepG2 CC20 (literature values): CC20 (footnote ^); for CC50: read-out: HepG2 CC50 (literature values)
G. lamblia = conditions: read-out: G. lamblia EC50 (literature), cited from earlier work
HepG2 cells [5] = test: Cytotoxicity against HepG2 cells, AlamarBlue viability assay, 48 hours; format: cell-based, human; conditions: read-out: HepG2 CC50 (this study)
Source text: as §1

C. parvum = conditions: cited from earlier work
[6] = Cryptosporidium parvum, HCT-8, read-out: Crypto (10 uM) Mean % inhibition
[7] = ref Pathogen_Box_Activity_Biological_Data_ Structure & Smiles (https://www.pathogenbox.org/about-pathogen-box/composition)
[8] = Cryptosporidium parvum, HCT-8, 48 h, read-out: C. parvum EC50, Nluc C. parvum in HCT-8 cells, 48 hours
[9] = luciferase expressing G. lamblia trophozoites, 24 hours, D-luciferin bioluminescence read-out
[10] = Nluc C. parvum in HCT-8 cells, 48 hours, read-out: C. parvum EC50
[11] = IOWA strain (48h), read-out: C. parvum EC50 (literature)

| Compound | Giardia (16 uM) Mean % inhibition [1] | EC50 [1, 9] | Crypto (10 uM) Mean % inhibition [2] | CC50 (HepG2 cells [5]) | CC50 (HepG2 cells [4]; [7]) | also measured |
| --- | --- | --- | --- | --- | --- | --- |
| CC1CS(=O)(=O)CCN1/N=C/c1ccc([N+](=O)[O-])o1 (centres unmarked) [MMV001499, Nifurtimox, reference compound] | – | – | – | – | – | EC50 ([1]; Giardia duodenalis, 24 h): 0.64 ± 0.12 µM; inhibition at 16 µM ([1]; Giardia duodenalis): 97%; inhibition at 10 µM [2, 6]: < 0%; CC50 at 48 h [3]: > 40 µM; HepG2 CC20 (literature values) (HepG2 cells [4]; [7]): >80 ^* ^^ μM; EC50 (G. lamblia; reference strain WB (48h)): 0.37 µM |
| Oc1c(I)cc(I)c2cccnc12 [MMV002817, Iodoquinol, reference compound] | – | – | – | – | – | EC50 ([1]; Giardia duodenalis, 24 h): 2.52 ± 0.45 µM; inhibition at 16 µM ([1]; Giardia duodenalis): 82%; EC50 [2, 8]: 0.48 ± 0.2 µM; inhibition at 10 µM ([2]; Cryptosporidium parvum, HCT-8, 48 h, read-out: C. parvum cell growth inhibition in the initial screen): ≥ 95%; inhibition at 10 µM [2, 6]: 95%; CC50 at 48 h [3]: ~40 µM; HepG2 CC20 (literature values) (HepG2 cells [4]; [7]): 2.50 ^* ^^ μM |
| COc1cc(-c2cc(-c3ccc(S(C)(=O)=O)cc3)cnc2N)ccc1O [MMV010576] | 94% | 1.9 ± 0.28 µM | 87% | > 40 µM | > 10 µM | EC50 [2, 10]: 3 µM and 2.99 µM |
| O=C(Nc1ccc(N2CCNCC2)cc1)c1ccn2ncc(-c3cccc(Cl)c3)c2n1 [MMV022478] | 98% | 2.41 ± 0.12 µM | X* (Mean or standard deviation are negative but not significantly different from the control to be a growth promoter) | > 40 µM | > 10 µM | – |
| OCCc1ccc(Nc2nccc(-c3nnc4ccccn34)n2)cc1 [MMV028694] | 99% | 3.88 ± 1.27 µM | 85% | 15.9 µM | 8.1 µM | EC50 [2, 10]: 1.56 ± 0.5 µM |
| CC(C)(C)c1cnc(NC(=O)c2ccccc2O)s1 [MMV495543] | 97% | 2.77 ± 0.21 µM | 51% | > 40 µM | 47.6 µM | – |
| CC(C)C(Oc1cccc2ccccc12)C(=O)O (centres unmarked) [MMV676191] | 9% | – | – | – | – | C. parvum cell growth inhibition in the initial screen ([2]; 48 hours): 36%; EC50 (C. parvum; ref MMV Pathogen_Box_Activity_Biological_Data_Smiles (https://www.pathogenbox.org/about-pathogen-box/composition), read-out: C. parvum EC50 reported in Pathogen Box datasheet): > 10 µM |
| O=C(Nc1cccnc1)c1c(O)c2cccc3c2n(c1=O)CC3 [MMV676395] | 98% | 1.57 ± 0.2 µM | 85% | > 40 µM | > 100 µM | C. parvum EC50 ([2]; Nluc C. parvum in HCT-8 cells, 48 hours): not potent |
| O=C(Nc1nnc(-c2ccc(Cl)s2)o1)c1ccc(Cl)s1 [MMV676501] | 78% | 1.4 ± 0.2 µM | 93% | > 40 µM | 50.1 µM | EC50 [2, 10]: 4.96 ± 1.8 µM |
| CC(C)/N=c1\cc2n(-c3ccc(Cl)cc3)c3ccccc3nc-2cc1Nc1ccc(Cl)cc1 [MMV687800, Clofazimine, reference compound] | – | – | – | – | – | EC50 ([1]; Giardia duodenalis, 24 h): 1.79 ± 0.23 µM; inhibition at 16 µM ([1]; Giardia duodenalis): 98%; EC50 [2, 8]: 3.3 µM; inhibition at 10 µM [2, 6]: 82%; EC50 ([2]; read-out: C. parvum EC50, Nluc C. parvum in HCT-8 cells, 48 hours): 3.33 ± 1.2 µM; CC50 at 48 h [3]: 26.4 µM; CC50 (HepG2 cells [4]): > 20 µM; EC50 (C. parvum; [11]): 0.015 µM |
| CN1CCN(CCCOc2ncc(Nc3ncc(-c4ccc(C(F)(F)F)c(F)c4)nc3C(N)=O)cn2)CC1 [MMV687812] | 98% | 1.25 ± 0.12 µM | 66% | 5.33 µM | 3.9 µM | – |
| C[C@]1(COc2ccc(N3CCC(Oc4ccc(OC(F)(F)F)cc4)CC3)cc2)Cn2cc([N+](=O)[O-])nc2O1 [MMV688262, Delamanid, reference compound] | – | – | – | – | 72.5 µM | EC50 ([1]; Giardia duodenalis, 24 h): 0.55 ± 0.04 µM; inhibition at 16 µM ([1]; Giardia duodenalis): 97%; inhibition at 10 µM [2, 6]: < 0%; CC50 at 48 h [3]: > 40 µM |
| O=[N+]([O-])c1cn2c(n1)OC[C@@H](OCc1ccc(OC(F)(F)F)cc1)C2 [MMV688755] | 99% | 1.57 ± 0.38 µM | 17% | > 40 µM | > 50 µM | – |
| COc1ccc2nccc(NC(=O)C3CCN(CCc4ccc(Cl)cc4)CC3)c2n1 [MMV688844] | 98% | 2.3 ± 0.43 µM | X* (Mean or standard deviation are negative but not significantly different from the control to be a growth promoter) | > 40 µM | > 50 µM | – |
| CCOc1ccc2cc(-c3nn(CC4CCN(C)CC4)c4ncnc(N)c34)ccc2c1 [MMV688854, reference compound] | 9% | – | – | – | – | C. parvum cell growth inhibition in the initial screen ([2]; 48 hours): 79%; EC50 (C. parvum; same strain of Nluc C. parvum, read-out: C. parvum EC50 (previously shown)): 2.7 µM |
| CC(=O)OCC1OC([S-])C(OC(C)=O)C(OC(C)=O)C1OC(C)=O.CCP(CC)CC.[Au+] (centres unmarked) [MMV688978, Auranofin, reference compound] | 98% | 3.74 ± 0.46 µM | 93% | 0.5 µM | – | EC50 [2, 10]: 3.34 ± 2.7 µM; CC50 (HepG2 cells [4]): 4.5 µM; EC50 (G. lamblia; WB strain (48h)): 4 to 6 µM; EC50 (C. parvum; [11]): 2 µM |
| CC(=O)Oc1ccccc1C(=O)Nc1ncc([N+](=O)[O-])s1 [MMV688991, Nitazoxanide, reference compound] | – | – | – | – | – | EC50 ([1]; Giardia duodenalis, 24 h): 0.8 ± 0.1 µM; inhibition at 16 µM ([1]; Giardia duodenalis): 97%; EC50 [2, 8]: 3.1 ± 0.4 µM; inhibition at 10 µM [2, 6]: 92%; CC50 at 48 h [3]: 10.7 µM; HepG2 CC20 (literature values) (HepG2 cells [4]; [7]): 6.35 ^* ^^ μM; EC50 (G. lamblia; WB strain (48h)): 0.8 µM; EC50 (G. lamblia; reference strain WB (48h)): 0.61 µM |
| C[C@H](c1ccc2c(c1)CCCC2)N(C)c1ncc2c(N)nc(N)nc2n1 [MMV690103] | 49% | – | 78% | – | – | – |
| CCc1ccc(C(NCc2nc(N)nc(N(C)C)n2)C(C)C)cc1 (centres unmarked) [MMV1019989] | 4.4% | – | X* (Mean or standard deviation are negative but not significantly different from the control to be a growth promoter) | – | – | – |
| O=C(Nc1nc(-c2ccccn2)cs1)C1CC1c1ccccc1F (centres unmarked) [MMV1028806] | X* (Mean or standard deviation are negative but not significantly different from the control to be a growth promoter) | – | 91% | – | – | – |
| CNC(=O)CNc1nc(-c2ccccn2)nc2scc(-c3ccccc3)c12 [MMV1029203] | 4% | – | 21% | – | – | – |
| CCCn1c(NC(=O)c2ccc3ccccc3n2)nc2ccccc21 [MMV1030799] | 13% | – | 81% | – | – | – |
| CCNC(=O)C(C)Nc1nc(-c2cccnc2)nc2sc(C)c(C)c12 (centres unmarked) [MMV1037162] | 11% | – | 20% | – | – | – |
| Cc1ccc(-c2nc(CN(Cc3ccccn3)C(C)C)cs2)o1 [MMV1088520] | 52% | – | 27% | – | – | – |
| COc1cccn2c(C(=O)N3CCCCC3)c(C(F)(F)F)nc12 [MMV1110498] | 61% | – | 60% | – | – | – |
| Cc1cc(OCC(=O)Nc2ccc(C(C)C)cc2)n(C)c(=O)c1C#N [MMV1198433] | 10% | – | 52% | – | – | – |
| CCOC(=O)c1noc(N)c1-c1ccccc1 [MMV1236379] | X* (Mean or standard deviation are negative but not significantly different from the control to be a growth promoter) | – | X* (Mean or standard deviation are negative but not significantly different from the control to be a growth promoter) | – | – | – |
| CCCSc1ccc2nc(NC(=O)OC)[nH]c2c1 [albendazole, Albendazole, reference compound] | – | – | – | – | – | EC50 ([1]; Giardia duodenalis, 24 h): 0.41 µM; EC50 (G. lamblia; reference strain WB (48h)): 0.23 µM |

Reference: article PMC6095626, “Screening of the Pathogen Box for inhibitors with dual efficacy against Giardia lamblia and Cryptosporidium parvum” (PLoS Neglected Tropical Diseases, 2018)
